Reference: US11685719B2, “Pyridinone MK2 inhibitors and uses thereof” (Xinthera, Inc., priority 2021, dated 2023)

Columns and labels:
p38a/MK2 = p38a/MK2 (Homo sapiens (Human), UniProt P49137+Q16539); experiment: biochemical; settings: 10-point 1:3 dilution, top dose 1 μM; 10 μM ATP, 2 h incubation; read-out: p38a/MK2 (1 μM) Enzyme pIC50 (converted)
Experimental: (§1) Expression vectors of the recombinant MK2 and PRAK kinases were constructed by cloning of the codon optimized gene sequences of MK2 (Uniprot ID P49137, amino acid fragment F46-H400), or PRAK (Uniprot ID Q81W41, amino acid fragment M1-Q471) into pGEX-4T1 (GE) for over expression of these kinases with N-terminal GST-tag. Protein expression was carried out in E. coli BL21 by growing the hosts in TB medium, induction of protein expression with 0.5 mM IPTG at approximate 0.8 OD600, and incubation of the cultures at 18° C. for 14-20 hours afterwards. The harvested cells were resuspended in […] of Lysis buffer (50 mM Tris-HCl, pH 8.0, 500 mM NaCl, 1 mM DTT, 5% glycerol, and 1 mM PMSF) per gram of wet cell mass and homogenized at 4° C. in a microfluidizer (ATS, Suzhou, China) at 14,000 psi pressure, 3 passes. The cell lysates were clarified by centrifugation and the supernatants containing the GST-fusion proteins were purified by affinity chromatography using GSH-Sepharose (GE) gravity flow columns pre-equilibrated in Buffer A (50 mM Tris-HCl, pH 8.0, 500 mM NaCl, 1 mM DTT, and 5% glycerol). After thorough washing of the columns with Buffer A, the bound GST-proteins were eluted by Buffer B (50 mM Tris, pH 8.0, 500 mM NaCl, 1 mM DTT, 5% glycerol, 10 mM glutathione), followed by size-exclusion purification on Superdex 200 column equilibrated in Buffer A. The purified proteins were concentrated to approximately 1 mg/ml and stored at −80° C.
(§2) This study evaluates the inhibitory potency of invention compound on p38/MK2 pathway vs p38/PRAK pathway. More specially the compound concentration (IC50) was determined that inhibited half of the maximal activation of MK2 or PRAK by p38. MK2 activation study was set up without or with a serial of 10-point 1:3 dilution of invention compound at top dose of 1 or 10 μM, and PRAK activation study was set up without or with a serial of 10-point 1:3 dilution of invention compound at top dose of 300 μM. The MIK2 and PRAK activity were determined by the phosphorylation level of HSP27 peptide conjugated with FITC.

p38a/PRAK = p38a/PRAK (Homo sapiens (Human), UniProt Q16539); experiment: biochemical; settings: 10-point 1:3 dilution, top dose 300 μM; 10 μM ATP, 2 h incubation; read-out: p38a/PRAK Enzyme pIC50 (converted)
Experimental: as §1, §2

p38a/PRAK, sequence (Q16539 whole entry): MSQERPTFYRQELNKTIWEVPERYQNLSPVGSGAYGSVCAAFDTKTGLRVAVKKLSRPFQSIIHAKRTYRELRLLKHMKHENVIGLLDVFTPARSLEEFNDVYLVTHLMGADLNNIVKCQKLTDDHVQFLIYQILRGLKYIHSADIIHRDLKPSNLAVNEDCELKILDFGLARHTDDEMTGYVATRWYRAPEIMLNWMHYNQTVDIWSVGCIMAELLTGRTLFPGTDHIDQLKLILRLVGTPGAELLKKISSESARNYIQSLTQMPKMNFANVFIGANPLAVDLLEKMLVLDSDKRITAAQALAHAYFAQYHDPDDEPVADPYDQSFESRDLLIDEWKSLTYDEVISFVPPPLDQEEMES
p38a/MK2, sequence (Q16539 whole entry, the tested form may be a part): as the sequence (Q16539 whole entry) above
p38a/MK2, sequence (P49137 46-400): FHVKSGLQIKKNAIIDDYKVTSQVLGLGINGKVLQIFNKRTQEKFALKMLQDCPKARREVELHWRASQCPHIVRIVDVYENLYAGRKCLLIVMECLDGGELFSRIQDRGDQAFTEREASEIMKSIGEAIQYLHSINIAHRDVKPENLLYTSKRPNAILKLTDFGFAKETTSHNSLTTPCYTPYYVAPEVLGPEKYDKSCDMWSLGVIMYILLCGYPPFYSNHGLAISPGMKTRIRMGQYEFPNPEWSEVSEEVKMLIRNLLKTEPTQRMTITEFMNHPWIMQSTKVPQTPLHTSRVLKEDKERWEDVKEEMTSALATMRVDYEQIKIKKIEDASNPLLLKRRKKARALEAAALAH

SMILES | IC50 (p38a/MK2) | IC50 (p38a/PRAK)
[2H]C([2H])(Oc1cc(C)n(-c2cc(-n3ccnc(C(C)(C)O)c3=O)ncc2C)c(=O)c1Cl)c1ncc(F)cc1F (single isomer, unassigned) [Example 19B, rel-3-chloro-4-((3,5-difluoropyridin-2-yl)methoxy-d2)-2′-(3-(2-hydroxypropan-2-yl)-2-oxopyrazin-1(2H)-yl)-5′,6-dimethyl-2H-[1,4′-bipyridin]-2-one] | 794 nM | > 316000 nM
[2H]C([2H])(Oc1cc(C)n(-c2cc(-n3ccnc(C(C)(C)O)c3=O)ncc2C)c(=O)c1Cl)c1ncc(Cl)cc1F (single isomer, unassigned) [Example 20A, rel-3-chloro-4-((5-chloro-3-fluoropyridin-2-yl)methoxy-d2)-2′-(3-(2-hydroxypropan-2-yl)-2-oxopyrazin-1(2H)-yl)-5′,6-dimethyl-2H-[1,4′-bipyridin]-2-one] | 1 nM | 3160 nM
[2H]C([2H])(Oc1cc(C)n(-c2cc(-n3ccnc(C(C)(C)O)c3=O)ncc2C)c(=O)c1Cl)c1ncc(Cl)cc1F (single isomer, unassigned) [Example 20B, rel-3-chloro-4-((5-chloro-3-fluoropyridin-2-yl)methoxy-d2)-2′-(3-(2-hydroxypropan-2-yl)-2-oxopyrazin-1(2H)-yl)-5′,6-dimethyl-2H-[1,4′-bipyridin]-2-one] | 316 nM | > 316000 nM
[2H]C([2H])(Oc1cc(C)n(-c2cc(-n3cccc(C(C)(C)O)c3=O)ncc2C)c(=O)c1Cl)c1ncc(Cl)cc1F (single isomer, unassigned) [Example 21B, rel-3-chloro-4-[(5-chloro-3-fluoropyridin-2-yl)(2H2)methoxy]-2′-[3-(2-hydroxypropan-2-yl)-2-oxopyridin-1-yl]-5′,6-dimethyl-[1,4′-bipyridin]-2-one] | > 1000 nM | > 316000 nM
[2H]C([2H])(Oc1cc(C)n(-c2cc(-n3ccnc(C(C)(C)O)c3=O)ncc2C)c(=O)c1Cl)c1ncc(F)cc1Cl (single isomer, unassigned) [Example 22A, rel-3-chloro-4-((3-chloro-5-fluoropyridin-2-yl)methoxy-d2)-2′-(3-(2-hydroxypropan-2-yl)-2-oxopyrazin-1(2H)-yl)-5′,6-dimethyl-2H-[1,4′-bipyridin]-2-one] | 2 nM | 3980 nM
[2H]C([2H])(Oc1cc(C)n(-c2cc(-n3cccc(C(C)(C)O)c3=O)ncc2C)c(=O)c1Cl)c1ncc(F)cc1Cl (single isomer, unassigned) [Example 23A, rel-4′-{3-chloro-4-[(3-chloro-5-fluoropyridin-2-yl)(2H2)methoxy]-6-methyl-2-oxopyridin-1-yl}-3-(2-hydroxypropan-2-yl)-5′-methyl-[1,2′-bipyridin]-2-one] | 2.51 nM | 6310 nM
Cc1cnc(-n2ccnc(C(C)(C)O)c2=O)cc1-n1c(C)cc(OCc2ncc(F)cc2Cl)c(Cl)c1=O (single isomer, unassigned) [Example 24B, rel-3-chloro-4-[(3-chloro-5-fluoropyridin-2-yl)methoxy]-2′-[3-(2-hydroxypropan-2-yl)-2-oxopyrazin-1-yl]-5′,6-dimethyl-[1,4′-bipyridin]-2-one] | 2.51 nM | 5010 nM
Cc1cnc(-n2cccc(C(C)(C)O)c2=O)cc1-n1c(C)nc(OCc2ncc(F)cc2F)c(Cl)c1=O (single isomer, unassigned) [Example 25A, rel-4′-{5-chloro-4-[(3,5-difluoropyridin-2-yl)methoxy]-2-methyl-6-oxopyrimidin-1-yl}-3-(2-hydroxypropan-2-yl)-5′-methyl-[1,2′-bipyridin]-2-one] | 3.98 nM | 6310 nM
Cc1cnc(-n2cccc(C(C)(C)O)c2=O)cc1-n1c(C)nc(OCc2ncc(F)cc2F)c(Cl)c1=O (single isomer, unassigned) [Example 25B, rel-4′-{5-chloro-4-[(3,5-difluoropyridin-2-yl)methoxy]-2-methyl-6-oxopyrimidin-1-yl}-3-(2-hydroxypropan-2-yl)-5′-methyl-[1,2′-bipyridin]-2-one] | 631 nM | > 316000 nM
[2H]C([2H])(Oc1cc(C)n(-c2cc(-n3ccc(F)c(C(C)(C)O)c3=O)ncc2C)c(=O)c1Cl)c1ncc(F)cc1F (single isomer, unassigned) [Example 26A, rel-3-chloro-4-[(3,5-difluoropyridin-2-yl)(2H2)methoxy]-2′-[4-fluoro-3-(2-hydroxypropan-2-yl)-2-oxopyridin-1-yl]-5′,6-dimethyl-[1,4′-bipyridin]-2-one] | 2.51 nM | 3160 nM
[2H]C([2H])(Oc1cc(C)n(-c2cc(-n3ccc(F)c(C(C)(C)O)c3=O)ncc2C)c(=O)c1Cl)c1ncc(F)cc1F (single isomer, unassigned) [Example 26B, rel-3-chloro-4-[(3,5-difluoropyridin-2-yl)(2H2)methoxy]-2′-[4-fluoro-3-(2-hydroxypropan-2-yl)-2-oxopyridin-1-yl]-5′,6-dimethyl-[1,4′-bipyridin]-2-one] | > 100 nM | > 316000 nM
Cc1cnc(-n2ccn(C(C)(C)CO)c2=O)cc1-n1c(C)cc(OCc2ncc(F)cc2F)c(Cl)c1=O (single isomer, unassigned) [Example 27A, rel-3-chloro-4-[(3,5-difluoropyridin-2-yl)methoxy]-2′-[3-(1-hydroxy-2-methylpropan-2-yl)-2-oxoimidazol-1-yl]-5′,6-dimethyl-[1,4′-bipyridin]-2-one] | > 100 nM | > 316000 nM

The remaining lines, values ahead:

IC50 (p38a/MK2) | IC50 (p38a/PRAK) | SMILES
1.26 nM | 5010 nM | [2H]C([2H])(Oc1cc(C)n(-c2cc(-n3cccc(C(C)(C)O)c3=O)ncc2C)c(=O)c1Cl)c1ncc(Cl)cc1F (single isomer, unassigned) [Example 21A, rel-3-chloro-4-[(5-chloro-3-fluoropyridin-2-yl)(2H2)methoxy]-2′-[3-(2-hydroxypropan-2-yl)-2-oxopyridin-1-yl]-5′,6-dimethyl-[1,4′-bipyridin]-2-one]
> 100 nM | > 316000 nM | [2H]C([2H])(Oc1cc(C)n(-c2cc(-n3ccnc(C(C)(C)O)c3=O)ncc2C)c(=O)c1Cl)c1ncc(F)cc1Cl (single isomer, unassigned) [Example 22B, rel-3-chloro-4-((3-chloro-5-fluoropyridin-2-yl)methoxy-d2)-2′-(3-(2-hydroxypropan-2-yl)-2-oxopyrazin-1(2H)-yl)-5′,6-dimethyl-2H-[1,4′-bipyridin]-2-one]
> 100 nM | > 316000 nM | [2H]C([2H])(Oc1cc(C)n(-c2cc(-n3cccc(C(C)(C)O)c3=O)ncc2C)c(=O)c1Cl)c1ncc(F)cc1Cl (single isomer, unassigned) [Example 23B, rel-4′-{3-chloro-4-[(3-chloro-5-fluoropyridin-2-yl)(2H2)methoxy]-6-methyl-2-oxopyridin-1-yl}-3-(2-hydroxypropan-2-yl)-5′-methyl-[1,2′-bipyridin]-2-one]
> 1000 nM | > 316000 nM | Cc1cnc(-n2ccnc(C(C)(C)O)c2=O)cc1-n1c(C)cc(OCc2ncc(F)cc2Cl)c(Cl)c1=O (single isomer, unassigned) [Example 24A, rel-3-chloro-4-[(3-chloro-5-fluoropyridin-2-yl)methoxy]-2′-[3-(2-hydroxypropan-2-yl)-2-oxopyrazin-1-yl]-5′,6-dimethyl-[1,4′-bipyridin]-2-one]
12.6 nM | 794 nM | Cc1cnc(-n2ccn(C(C)(C)CO)c2=O)cc1-n1c(C)cc(OCc2ncc(F)cc2F)c(Cl)c1=O (single isomer, unassigned) [Example 27B, rel-3-chloro-4-[(3,5-difluoropyridin-2-yl)methoxy]-2′-[3-(1-hydroxy-2-methylpropan-2-yl)-2-oxoimidazol-1-yl]-5′,6-dimethyl-[1,4′-bipyridin]-2-one]
1 nM | 3160 nM | [2H]C([2H])(Oc1cc(C)n(-c2cc(-n3ccnc(C(C)(C)O)c3=O)ncc2C)c(=O)c1Cl)c1ncc(C)cc1F (single isomer, unassigned) [Example 28A, rel-3-chloro-4-[(3-fluoro-5-methylpyridin-2-yl)(2H2)methoxy]-2′-[3-(2-hydroxypropan-2-yl)-2-oxopyrazin-1-yl]-5′,6-dimethyl-[1,4′-bipyridin]-2-one]
